Test results reported in ChEMBL document CHEMBL1201862, “PubChem BioAssay data set” (2004).
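Cells were grown in 96-well plates and exposed to each compound for 48 hours at five concentrations; endpoints were interpolated linearly between bracketing concentrations, or set to the highest concentration if not reached. GI50 marks 50% less growth.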 Calls of active or inactive are those of the source. No stated cut-off is given here; in the data, active = GI50 up to about 1.1 µM and inactive = higher.

Columns and labels:
Assay in all cases: growth of human tumour cells (NCI), 48 h
XF498 = tested on: XF498
SNB-78 = tested on: SNB-78
M19-MEL = tested on: M19-MEL
DMS-273 = tested on: DMS-273
DLD-1 = tested on: DLD-1
LXFL 529 = tested on: LXFL 529
HOP-18 = tested on: HOP-18
KM-20L2 = tested on: KM-20L2
RXF 631 = tested on: RXF 631

SMILES | GI50 (XF498) | GI50 (SNB-78) | GI50 (M19-MEL) | GI50 (DMS-273) | GI50 (DLD-1) | GI50 (LXFL 529) | GI50 (HOP-18) | GI50 (KM-20L2) | GI50 (RXF 631)
CC(Oc1ccc(OCC2CCCCC2)cc1)C(=O)NCc1ccco1 (stereo not given) | 17.7 µM (inactive) | 58.6 µM (inactive) | 40.7 µM (inactive) | 25.5 µM (inactive) | 34.9 µM (inactive) | 35.6 µM (inactive) | 89.7 µM (inactive) | – | –
CCO/C([O-])=C(\C(=O)c1ccccc1)[n+]1c(C)sc2ccccc21 | – | > 100 µM (inactive) | 18.4 µM (inactive) | > 100 µM (inactive) | > 100 µM (inactive) | 54.1 µM (inactive) | 20 µM (inactive) | > 100 µM (inactive) | –
CC(=O)OC1C/C(C)=C/[C@H](O)CC(C)/C=C/[C@@]2(C)CCC(C(C)(C)O)C12 (stereo not given in full) | > 100 µM (inactive) | > 100 µM (inactive) | > 100 µM (inactive) | > 100 µM (inactive) | > 100 µM (inactive) | > 100 µM (inactive) | > 100 µM (inactive) | > 100 µM (inactive) | > 100 µM (inactive)
CN1C(=O)N(C)C(N2CCCC2)c2c1nc1ccccn1c2=O (stereo not given) | 77.8 µM (inactive) | 57.4 µM (inactive) | 92.5 µM (inactive) | 43.4 µM (inactive) | 35.3 µM (inactive) | 63.5 µM (inactive) | > 100 µM (inactive) | > 100 µM (inactive) | –
Cc1ccc(S(=O)(=O)N2c3ccccc3[C@H]3CCC=C[C@H]32)cc1 | 8.65 µM (inactive) | 19.2 µM (inactive) | 4.68 µM (inactive) | 3.66 µM (inactive) | 13.3 µM (inactive) | 9.55 µM (inactive) | 59.3 µM (inactive) | 3.18 µM (inactive) | 10.8 µM (inactive)
FC(F)(F)C12C34C=CC5(CCC6(C=CC1(CC3)O6)C52C(F)(F)F)O4 (stereo not given) | > 100 µM (inactive) | > 100 µM (inactive) | > 100 µM (inactive) | > 100 µM (inactive) | – | > 100 µM (inactive) | > 100 µM (inactive) | > 100 µM (inactive) | –
COc1cc2ccc3c4cc(OC)c(OCc5ccccc5)cc4cnc3c2cc1OC | > 100 µM (inactive) | > 100 µM (inactive) | > 100 µM (inactive) | – | > 100 µM (inactive) | > 100 µM (inactive) | – | > 100 µM (inactive) | –
CCc1cccc(CC)c1NC(=O)C1=CNC(C)=C(C(=O)Nc2c(CC)cccc2CC)C1c1ccc(O)c(OC)c1 (stereo not given) | 26.6 µM (inactive) | 28.7 µM (inactive) | 34.4 µM (inactive) | – | 47 µM (inactive) | 27.1 µM (inactive) | – | 49.5 µM (inactive) | 37.9 µM (inactive)
CCCCCCCCC/C=C/C=C/C(=O)NCC(=O)NC1C(O)C(O)C(Nc2ncnc3[nH]cnc23)OC1C(O)CO (stereo not given) | – | – | 0.001 µM (active) | 0.001 µM (active) | 0.0655 µM (active) | 0.00838 µM (active) | – | 0.001 µM (active) | –
Cn1c(N)[n+](C(=O)OCc2ccccc2)c(=O)c2c1ncn2C(=O)OCc1ccccc1 | – | 41.5 µM (inactive) | > 100 µM (inactive) | > 100 µM (inactive) | 95.1 µM (inactive) | > 100 µM (inactive) | 78.9 µM (inactive) | > 100 µM (inactive) | –
Cn1c(O)c(C(=O)NC2CCCCC2)c(=O)n(C)c1=S | – | – | – | – | 4.93 µM (inactive) | 2.78 µM (inactive) | 3.6 µM (inactive) | 8.04 µM (inactive) | 4.91 µM (inactive)
CCCCCCCCCCCCCCCCSS(C)(=O)=O | 6.1 µM (inactive) | – | – | 27 µM (inactive) | 11.6 µM (inactive) | 8.75 µM (inactive) | 58.7 µM (inactive) | 37.6 µM (inactive) | 16.3 µM (inactive)
Nc1ccc(-c2cc(C(=O)Nc3nccs3)nc(S)n2)cc1 | > 100 µM (inactive) | > 100 µM (inactive) | > 100 µM (inactive) | – | > 100 µM (inactive) | > 100 µM (inactive) | 61.1 µM (inactive) | > 100 µM (inactive) | –
CCNc1nnc(CSc2nc(-c3ccccc3)c(-c3ccccc3)[nH]2)s1 | – | 30.8 µM (inactive) | 16.3 µM (inactive) | 22.2 µM (inactive) | 22.7 µM (inactive) | 24.7 µM (inactive) | – | 27.8 µM (inactive) | –
COC(=O)C(=O)Cc1nc2ccccc2s1 | – | > 100 µM (inactive) | > 100 µM (inactive) | > 100 µM (inactive) | > 100 µM (inactive) | > 100 µM (inactive) | > 100 µM (inactive) | > 100 µM (inactive) | –
CCOC(=O)c1c(NNc2ccccc2)nc2ccccc2c1-c1ccccc1 | – | 27 µM (inactive) | 24.3 µM (inactive) | 43.2 µM (inactive) | 25.9 µM (inactive) | 19 µM (inactive) | 28.6 µM (inactive) | 35.5 µM (inactive) | –
CC(CCCOC(c1ccccc1)(c1ccccc1)c1ccccc1)OC(=O)Nc1cc([N+](=O)[O-])cc([N+](=O)[O-])c1 (stereo not given) | – | – | 40.3 µM (inactive) | 33.7 µM (inactive) | 30.1 µM (inactive) | 29.2 µM (inactive) | – | – | 38.2 µM (inactive)
COCN1COCN/C1=N\C#N | > 100 µM (inactive) | > 100 µM (inactive) | > 100 µM (inactive) | 98.2 µM (inactive) | > 100 µM (inactive) | > 100 µM (inactive) | > 100 µM (inactive) | > 100 µM (inactive) | > 100 µM (inactive)
Nc1nc(-c2ccccc2)c(Cl)c(-c2cc(Cl)ccc2O)n1 | 28.8 µM (inactive) | 28.1 µM (inactive) | > 72.1 µM (inactive) | 29.7 µM (inactive) | 26.3 µM (inactive) | 25.9 µM (inactive) | 42.3 µM (inactive) | 65.3 µM (inactive) | 97.7 µM (inactive)
Cc1ccc(S(=O)(=O)NC(C)C(=O)O)cc1 (stereo not given) | > 100 µM (inactive) | – | > 100 µM (inactive) | > 100 µM (inactive) | > 100 µM (inactive) | > 100 µM (inactive) | > 100 µM (inactive) | > 100 µM (inactive) | > 100 µM (inactive)
O=C1CC(c2c(-c3ccccc3)[nH]c3ccccc23)C(=O)N1 (stereo not given) | > 100 µM (inactive) | > 100 µM (inactive) | > 100 µM (inactive) | > 100 µM (inactive) | > 100 µM (inactive) | > 100 µM (inactive) | – | > 100 µM (inactive) | > 100 µM (inactive)
